PubChem BioAssay (NCI)
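Where inhibition never reached the appropriate level, the endpoint shown equals the highest concentration tested. Otherwise, values were interpolated linearly from a five-concentration, 48-hour dose response in 96-well plates. GI50: concentration for 50% inhibition of growth. TGI: concentration producing complete growth inhibition.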 *1 amine or outer side, *2 acyl side, *3 side chain or, on linkers, in order; H or OH if unused. Where a SMILES comes first, the peptide text is derived from it. [ ]: non-standard residue; d: D form. The star is where a group is joined. X11 = C/C=C/CC(C)C(O)[C@H](N[*:1])C(=O)[*:2]; Decanoyl = CCCCCCCCCC(=O)*; Leu(ol) = CC(C)C[C@H](N)CO; Iva = CC[C@](C)(N)C(=O)O; Aib = CC(C)(N)C(=O)O

Assays:
Experiment in all cases: NCI anticancer screen, dose series, 48 h
[1] = system: 786-0 renal
[2] = system: A498 renal
[3] = system: A549 NSCLC
[4] = system: ACHN renal
[5] = system: BT-549 breast
[6] = system: CAKI-1 renal
[7] = system: CCRF-CEM leukemia
[8] = system: COLO 205 colon
[9] = system: DU-145 prostate
[10] = system: EKVX NSCLC
[11] = system: HCC-2998 colon
[12] = system: HCT-116 colon
[13] = system: HCT-15 colon
[14] = system: HL-60(TB) leukemia
[15] = system: HOP-62 NSCLC
[16] = system: HOP-92 NSCLC
[17] = system: HS 578T breast
[18] = system: HT29 colon
[19] = system: IGROV1 ovarian
[20] = system: K-562 leukemia
[21] = system: KM12 colon
[22] = system: LOX IMVI melanoma
[23] = system: M14 melanoma
[24] = system: MALME-3M melanoma
[25] = system: MCF7 breast
[26] = system: MDA-MB-231 breast
[27] = system: MDA-MB-435
[28] = system: MOLT-4 leukemia
[29] = system: NCI-H226 lung
[30] = system: NCI-H23 lung
[31] = system: NCI-H460 lung
[32] = system: NCI-H522 lung
[33] = system: NCI/ADR-RES ovarian
[34] = system: OVCAR-3 ovarian
[35] = system: OVCAR-4 ovarian
[36] = system: OVCAR-5 ovarian
[37] = system: OVCAR-8 ovarian
[38] = system: PC-3 prostate
[39] = system: RPMI-8226 leukemia
[40] = system: RXF 393 renal
[41] = system: SF-268 CNS
[42] = system: SF-295 CNS
[43] = system: SF-539 CNS
[44] = system: SK-MEL-2 melanoma
[45] = system: SK-MEL-28 melanoma
[46] = system: SK-MEL-5 melanoma
[47] = system: SK-OV-3 ovarian
[48] = system: SN12C renal
[49] = system: SNB-19 CNS
[50] = system: SNB-75 CNS
[51] = system: SR leukemia
[52] = system: SW-620 colon
[53] = system: T-47D breast
[54] = system: TK-10 renal
[55] = system: U251 CNS
[56] = system: UACC-257 melanoma
[57] = system: UACC-62 melanoma
[58] = system: UO-31 renal

With `C/C=C/CC(C)C(O)[C@H](NC(=O)[C@@H]1CCCN1C(=O)[C@](C)(CC)NC(=O)CCCCCCCCC)C(=O)N[C@@](C)(CC)C(=O)N[C@@H](CCC(N)=O)C(=O)N[C@H](CCC(N)=O)C(=O)NC(C)(C)C(=O)NC(C)(C)C(=O)N[C@@H](CCC(N)=O)C(=O)N[C@H](CC(C)C)C(=O)N[C@H](CO)CC(C)C` (stereo partly drawn) (Decanoyl-[Iva]P[X11][Iva]Q[dQ][Aib][Aib]Q[dL][Leu(ol)]) the GI50 [1] was 1810 nM, the TGI [1] was 3.43 µM and the GI50 [2] was 1900 nM. It also gave a TGI [2] of 3.44 µM, a GI50 [3] of 1910 nM and a TGI [3] of 3.92 µM. It also gave a GI50 [4] of 1800 nM, a TGI [4] of 3.29 µM and a GI50 [5] of 1800 nM. It also gave a TGI [5] of 3.36 µM, a GI50 [6] of 1690 nM and a TGI [6] of 3.11 µM. For the same compound, the GI50 [7] was 1860 nM, the TGI [7] was 3.65 µM and the GI50 [8] was 1960 nM. It also gave a TGI [8] of 3.81 µM, a GI50 [9] of 1790 nM and a TGI [9] of 3.18 µM. The GI50 [10] was 1740 nM, the TGI [10] was 3.29 µM and the GI50 [11] was 1780 nM. The TGI [11] was 3.42 µM, the GI50 [12] was 1890 nM and the TGI [12] was 3.57 µM. The GI50 [13] was 1860 nM, the TGI [13] was 3.67 µM and the GI50 [14] was 1740 nM. The TGI [14] was 3.39 µM, the GI50 [15] was 1630 nM and the TGI [15] was 3.27 µM. The GI50 [16] was 1620 nM, the TGI [16] was 3.25 µM and the GI50 [17] was 1800 nM. It also gave a TGI [17] of 3.48 µM, a GI50 [18] of 1880 nM and a TGI [18] of 3.72 µM. It also gave a GI50 [19] of 1790 nM, a TGI [19] of 3.39 µM and a GI50 [20] of 1950 nM. For the same compound, the TGI [20] was 3.97 µM, the GI50 [21] was 1870 nM and the TGI [21] was 3.57 µM. It also gave a GI50 [22] of 1740 nM, a TGI [22] of 3.26 µM and a GI50 [23] of 1800 nM. For the same compound, the TGI [23] was 3.37 µM, the GI50 [24] was 1520 nM and the TGI [24] was 2920 nM. It also gave a GI50 [25] of 1770 nM, a TGI [25] of 3.52 µM and a GI50 [26] of 1780 nM. For the same compound, the TGI [26] was 3.25 µM, the GI50 [27] was 1770 nM and the TGI [27] was 3.17 µM. For the same compound, the GI50 [28] was 1930 nM, the TGI [28] was 3.64 µM and the GI50 [29] was 1780 nM. The TGI [29] was 3.83 µM, the GI50 [30] was 1800 nM and the TGI [30] was 3.42 µM. For the same compound, the GI50 [31] was 1840 nM, the TGI [31] was 3.38 µM and the GI50 [32] was 1770 nM. It also gave a TGI [32] of 3.37 µM, a GI50 [33] of 1810 nM and a TGI [33] of 3.48 µM. It also gave a GI50 [34] of 1880 nM, a TGI [34] of 3.44 µM and a GI50 [35] of 2150 nM. The TGI [35] was 4.8 µM, the GI50 [36] was 1680 nM and the TGI [36] was 3.07 µM. For the same compound, the GI50 [37] was 2040 nM, the TGI [37] was 4.24 µM and the GI50 [38] was 1760 nM. For the same compound, the TGI [38] was 3.26 µM, the GI50 [39] was 2020 nM and the TGI [39] was 4.32 µM. For the same compound, the GI50 [40] was 2020 nM, the TGI [40] was 3.64 µM and the GI50 [41] was 1830 nM. It also gave a TGI [41] of 3.45 µM, a GI50 [42] of 1740 nM and a TGI [42] of 3.3 µM. It also gave a GI50 [43] of 1750 nM, a TGI [43] of 3.15 µM and a GI50 [44] of 1770 nM. For the same compound, the TGI [44] was 3.35 µM, the GI50 [45] was 1700 nM and the TGI [45] was 3.09 µM. For the same compound, the GI50 [46] was 1780 nM, the TGI [46] was 3.25 µM and the GI50 [47] was 1930 nM. The TGI [47] was 3.95 µM, the GI50 [48] was 1670 nM and the TGI [48] was 3.22 µM. For the same compound, the GI50 [49] was 1740 nM, the TGI [49] was 3.18 µM and the GI50 [50] was 1400 nM. It also gave a TGI [50] of 2800 nM, a GI50 [51] of 1610 nM and a TGI [51] of 3.43 µM. The GI50 [52] was 1900 nM, the TGI [52] was 3.59 µM and the GI50 [53] was 1590 nM. It also gave a TGI [53] of 3.4 µM, a GI50 [54] of 1750 nM and a TGI [54] of 3.27 µM. It also gave a GI50 [55] of 1770 nM, a TGI [55] of 3.35 µM and a GI50 [56] of 1740 nM. The TGI [56] was 3.26 µM, the GI50 [57] was 1660 nM and the TGI [57] was 3.05 µM. It also gave a GI50 [58] of 1540 nM and a TGI [58] of 2910 nM.
